Experimental data as given in US7537760B2, “Monoclonal antibodies recognizing BAG3 protein sequences and their use in diagnostic and therapy of cell death-involving diseases” (priority 2001, dated 2009).

Assays:
[1] = target: T1, BAG3 protein (Homo sapiens, UniProt O95817); experiment: BAG3 protein in ALL cells, Western blot and intracellular immunofluorescence; assay type: cell-based; details: oligo 5 microM, 24 hr
T1 construct: endogenous in cells; host or cells: primary leukemic cells from patients' peripheral blood (B-CLL, acute leukemia)
Method: FIG. 11 Expression of BAG3 protein in ALL cells and its downmodulation by BAG3-specific antisense oligonucleotides. A—ALL cells (1×10^6/ml) were cultured in 10% FCS-RPMI without or with control nonsense ([…], SEQ ID NO 12, nonsense 1) or BAG3-specific antisense ([…], SEQ ID NO 9, antisense 1) oligonucleotides (5 microM) for 24 hr. Then cell lysates were obtained and analyzed in Western blot with anti-BAG3 (AC-BAG3-1; analogous results were obtained With AC-BAG3-2) or anti-tubulin antibodies. B—ALL cells (1×10^6/ml) were cultured in 10% FCS-RPMI without or with BAG3-specific antisense ([…], SEQ ID NO 9, antisense 1) (a) or control nonsense ([…], SEQ ID NO 12, nonsense 1) (b) oligonucleotides (5 microM) for 24 hr. Then the cells were analyzed by intracellular immunofluorescence with the anti-BAG3 polyclonal antibody. Negative controls with a control rabbit antibody preparation are shown on the left in a and b.

[2] = test system: BAG3; experiment: BAG3 mRNA (PCR) and protein (immunofluorescence) levels in primary B-CLL cells; assay type: cell-based, human
Method: FIG. 1—Expression of BAG3 mRNA and protein in primary cells from leukemia patients. Leukemic cells were isolated from B-CLL patients' peripheral blood specimens by centrifugation through Ficoll-Hypaque (13) and cultured for 24 hours in RPMI 1640 medium supplemented with 10% fetal calf serum (10% FCS-RPMI), without or with fludarabine phosphate. A panel: cell mRNA was the extracted and BAG3 expression was verified by PCR (GAPDH expression is shown for comparative purpose); B panel: cells were permeabilised and analysed by indirect immunofluorescence with the polyclonal antibody AC-BAG3-1. A=control rabbit Ig; b=cells incubated with control medium and analysed with anti-BAG3; c=cells incubated with fludarabine and analysed with anti-BAG3.
FIG. 2—Downmodulation of BAG3 protein levels by anti-BAG3 antisense oligodeoxynucleotides. Leukemic cells were isolated from B-CLL patients' peripheral blood specimens by centrifugation through Ficoll-Hypaque and cultured for 20 hours without (b) or with BAG3 antisense (b+α) or control nonsense (b+ν) phosphorothioate oligodeoxynucleotides (5 microM) described in the text. Then cells were permeabilised and analysed by indirect immunofluorescence with the polyclonal antibody AC-BAG3-1. a=control rabbit Ig.

[3] = test system: cells of the human osteosarcoma line SAOS; experiment: Apoptosis in SAOS cells, cell permeabilization and PI staining; assay type: cell-based; details: 72 h; for % of apoptosis, incubation Etoposide (5 microM) / % of apoptosis, incubation Topotecan (40 ng/ml): without or with oligo 5 microM
Method: Cells of the SAOS line were incubated for 72 h in 10% FCS-RPMI without or with chemotherapeutic compounds (etoposide or topotecan) and/or the BAG3 antisense or control nonsense phosphorothioate oligodeoxynucleotides (5 microM) described in the text. Then cell apoptosis was analysed by cell permeabilization and PI staining according to ref.11.

T1 sequence (O95817 whole entry): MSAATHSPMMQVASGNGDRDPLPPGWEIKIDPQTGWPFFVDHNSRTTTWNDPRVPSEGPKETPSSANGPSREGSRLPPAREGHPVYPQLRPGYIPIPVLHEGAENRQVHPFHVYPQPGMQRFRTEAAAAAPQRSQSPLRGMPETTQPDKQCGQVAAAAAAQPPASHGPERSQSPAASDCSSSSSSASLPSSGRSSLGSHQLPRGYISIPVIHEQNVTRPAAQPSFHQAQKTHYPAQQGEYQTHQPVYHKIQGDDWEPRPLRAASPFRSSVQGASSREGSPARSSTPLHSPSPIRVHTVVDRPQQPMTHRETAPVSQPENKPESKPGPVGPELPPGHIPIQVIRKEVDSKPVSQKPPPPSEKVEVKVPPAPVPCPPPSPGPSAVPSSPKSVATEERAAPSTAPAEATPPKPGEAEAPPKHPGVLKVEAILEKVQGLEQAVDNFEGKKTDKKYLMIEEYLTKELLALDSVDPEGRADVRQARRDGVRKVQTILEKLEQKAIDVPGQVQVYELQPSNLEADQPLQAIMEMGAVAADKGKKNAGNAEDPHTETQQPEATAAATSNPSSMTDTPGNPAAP

**Q.** For “antisense 1: BAG3 antisense phosphorothioate oligodeoxynucleotide TGCATCATGGGCGAGTGGGTGGCGG (antisense TGCATCATGGGCGAGTGGGTGGCGG; DNA, all phosphorothioate, methylation of C not given here; listed as Homo sapiens)”, which “BAG3 protein in ALL cells” value [1] is on record?
**A.** Its value is “downmodulation”.

**Q.** For `Nc1nc(F)nc2c1ncn2[C@@H]1O[C@H](COP(=O)(O)O)[C@@H](O)[C@@H]1O` [fludarabine, fludarabine phosphate], which “BAG3 mRNA levels” value ([2]; 24 hours, PCR) is on record?
**A.** The value was “enhanced”.

**Q.** What about the BAG3 protein levels ([2]; immunofluorescence, 11 of 13 BAG3-positive specimens (18 examined)) of the same compound?
**A.** The BAG3 protein levels was “upregulated”.

**Q.** Which “% of apoptosis, incubation Etoposide (5 microM)” value [3] does the source give for “control nonsense: control nonsense phosphorothioate oligodeoxynucleotides described in the text; which of nonsense 1-3 is not stated (DNA TTATATTCTATTATATTTATGAACTCC; DNA, all phosphorothioate, methylation of C not given here; listed as Homo sapiens)” here?
**A.** Its value is 45.40%.

**Q.** And the “% of apoptosis, incubation Topotecan (40 ng/ml)” value [3]?
**A.** Its value is 41.60%.

**Q.** What about the “% of apoptosis, incubation control medium” value ([3]; oligo 5 microM, no chemotherapeutic compound) of the same compound?
**A.** The value was 25.84%.

**Q.** For `COc1cc([C@@H]2c3cc4c(cc3[C@@H](O[C@@H]3O[C@@H]5CO[C@@H](C)O[C@H]5[C@H](O)[C@H]3O)[C@H]3COC(=O)[C@H]23)OCO4)cc(OC)c1O` [Etoposide, etoposide], which “% of apoptosis, incubation Etoposide (5 microM)” value [3] is on record?
**A.** The value was 38.32%.

**Q.** `CC[C@@]1(O)C(=O)OCc2c1cc1n(c2=O)Cc2cc3c(CN(C)C)c(O)ccc3nc2-1` [Topotecan, topotecan] was tested. Which “% of apoptosis, incubation Topotecan (40 ng/ml)” value [3] did it give?
**A.** Its value is 36.84%.
